{"source": "patent EP1961762A1", "about": "“Inhibitors of protein phosphatase 1/GADD34, preparation and uses thereof” (Institut Gustave Roussy, priority 2007, dated 2008)", "key": {"[1]": {"system": "CT26 tumour cells", "experiment": "Anti-tumour vaccination with dying treated CT26 tumour cells, challenge with live tumour cells", "format": "in vivo, BALB/c mice", "conditions": "for immunogenic cell death: PP1/GADD34 inhibitor alone"}, "[2]": {"system": "MCA205, B16F10, J558", "experiment": "CRT exposure on murine tumour cell lines", "format": "cell-based"}, "[3]": {"system": "HeLa, A549, HCT116", "experiment": "CRT exposure on human tumour cell lines", "format": "cell-based"}, "[4]": {"system": "CT26 tumours", "experiment": "Intratumoural treatment of established CT26 tumours, immunocompetent mice", "conditions": "for therapeutic effect of single agent: single intratumoural injection, 14-day-old tumours", "protocol": "(§1) All animals were maintained in specific pathogen-free conditions and all experiments followed the FELASA guidelines. […] Tumours were evaluated weekly, using a caliper. In a series of experiments, BALB/c (wild type or nu/nu) carrying palpable CT26 tumours (implanted 14 days before for wild type or 7 days before for nu/nu mice by injection of 10^6 tumour cells) received a single intratumoural injection of 100 µM PBS containing the same concentration of anti-cancer agents and PP1/GADD34 inhibitors as those used in vitro, as well as rCRT (15 µg)."}, "[5]": {"system": "CT26 tumours", "experiment": "Intratumoural treatment of established CT26 tumours, nu/nu mice", "conditions": "single intratumoural injection", "protocol": "as §1"}, "[6]": {"system": "CRT", "experiment": "Fluorescence detection of cell surface CRT on CT26 cells", "format": "cell-based, murine", "experimental": "CT26 cells were cultured at 37°C under 5% CO2 in RPMI 1640 medium supplemented with 10% FCS, penicillin, streptomycin, 1 mM pyruvate and 10 mM HEPES in the presence of doxorubicin (DX; 24 h, 25 µM), mitoxantrone (Mitox; 24h, 1 µM, Sigma), idarubicin (24h, 1 µM, Aventis, France), mitomycin C (30 µM, 48 h; Sanofi-Synthelabo, France), and/or zVAD-fmk (50 µM, 24 h; Bachem), tunicamycin (24h, 65 µM), thapsigargin (24h, 30µM), brefeldin A (24h, 50 µM, Sigma), etoposide (48h, 25µM, Tava classics), MG132 (48h, 10 µM), ALLN (48h, […]), betulinic acid (24h, 10 µM), Hoechst 33343 (24h, 0,2µM), camptothecine (24h, 15 µM), lactacystin (48h, 60 µM), BAY 11-8072 (24h, 30µM), staurosporine (24h, 1.5 µM), bafilomycin A1 (48h, 300 nM), arsenic trioxide (24h, 30µM), C2-ceramide (C2-C; 24h, 60 µM,), calyculin A (48h, 30nM), or tautomycin (48h, nM, Sigma) and/or salubrinal (48h, µM, Calbiochem).\nCT26 cells (on a glass slide or in 12-well plates) were first washed with FACS buffer (1× PBS, 5% fetus bovine serum, and 0.1% sodium azide) and then incubated with rabbit anti-mouse CRT antibody (1:100, Stressgen) in FACS buffer at 4 °C for 30 min. Cells reacted with anti-rabbit IgG (H+L) Alexa fluor 488-conjugates (1:500) in FACS buffer at 4 °C for 30 min. After washing three times with FACS buffer, surface CRT was detected by cytofluorometric analysis on a FACS Vantage. In some experiments, cells were fixed with 4% paraformaldehyde, counterstained with Hoechst (2µM; Sigma), followed by fluorescence microscopic assessment with a Leica IRE2 microscope equipped with a DC300F camera."}, "[7]": {"system": "CRT and/or ERp57", "experiment": "Immunofluorescence staining of unfixed human tumour cell lines", "format": "cell-based", "conditions": "variety of human tumour cell lines"}, "[8]": {"conditions": "dying CT26 cells treated with the agent injected into one flank, live tumour cells into the opposite flank 8 days later"}}, "note": "Peptide text beside a SMILES is read from it. * marks the point of attachment. Cbz = O=C(OCc1ccccc1)*; CH2F = FC*", "data": [{"compound": "CCOc1ccc(-c2nc3ccc(-c4nc5ccc(N6CCN(C)CC6)cc5[nH]4)cc3[nH]2)cc1", "note": "[Hoechst 33342]", "values": [{"measurement": "immunogenic apoptosis / immunogenic cell death (protection against tumour growth)", "setting": "[1]; [8]", "value": "failed to induce immunogenic apoptosis"}]}, {"compound": "arsenic trioxide [arsenite]", "values": [{"measurement": "immunogenic apoptosis / immunogenic cell death (protection against tumour growth)", "setting": "[1]; mouse, in vivo", "value": "failed to induce immunogenic apoptosis"}]}, {"compound": "C/C=C(/C)C(=O)O[C@H]1C(C)=C2[C@H]([C@@H]1OC(=O)CCCCCCC)[C@@](C)(OC(C)=O)C[C@H](OC(=O)CCC)[C@@]1(O)[C@H]2OC(=O)[C@@]1(C)O", "note": "[thapsigargin]", "values": [{"measurement": "immunogenic apoptosis / immunogenic cell death (protection against tumour growth)", "setting": "[1]; [8]", "value": "failed to induce immunogenic apoptosis"}]}, {"compound": "CC[C@@]1(O)C(=O)OCc2c1cc1n(c2=O)Cc2cc3ccccc3nc2-1", "note": "[camptothecin]", "values": [{"measurement": "immunogenic apoptosis / immunogenic cell death (protection against tumour growth)", "setting": "[1]; [8]", "value": "failed to induce immunogenic apoptosis"}]}, {"compound": "O=C(/C=C/c1ccccc1)NC(NC(=S)Nc1cccc2cccnc12)C(Cl)(Cl)Cl", "note": "(centres unmarked) [salubrinal]", "values": [{"measurement": "CRT exposure", "setting": "[2]", "value": "induced CRT exposure"}, {"measurement": "immunogenic cell death", "setting": "[1]", "value": "not sufficient to induce immunogenic cell death"}, {"measurement": "immunogenic potential of cells succumbing to etoposide", "setting": "[1]; in combination with etoposide (mitomycin C not shown), abrogated by knocking down CRT", "value": "greatly enhanced"}, {"measurement": "CRT exposure", "setting": "[3]", "value": "induced CRT exposure"}, {"measurement": "tumour response", "setting": "[4]; combined with etoposide or mitomycin C, intratumoural", "value": "stable disease or complete tumour regression"}, {"measurement": "therapeutic effect of single agent", "setting": "[4]", "value": "no major therapeutic effect"}, {"measurement": "therapeutic effect of single agent", "setting": "[5]", "value": "no major therapeutic effect"}, {"measurement": "CRT exposure", "setting": "[6]; agent alone", "value": "efficiently induced"}, {"measurement": "CRT exposure", "setting": "[6]; in combination with etoposide", "value": "greatly enhanced"}]}, {"compound": "tunicamycin", "values": [{"measurement": "immunogenic apoptosis / immunogenic cell death (protection against tumour growth)", "setting": "[1]; [8]", "value": "failed to induce immunogenic apoptosis"}]}, {"compound": "COC[C@@H]([C@H](O)[C@H](O)C(=O)NCC[C@H](C)c1nc(/C=C/C[C@@H]2O[C@]3(C[C@@H](O)[C@@H]2C)O[C@H]([C@H](C[C@H](O)[C@H](C)[C@H](O)[C@H](C)/C=C(C)/C(C)=C/C=C/C(C)=C\\C#N)OC)[C@H](OP(=O)(O)O)C3(C)C)co1)N(C)C", "note": "[calyculin A]", "values": [{"measurement": "immunogenic cell death", "setting": "[1]", "value": "not sufficient to induce immunogenic cell death"}, {"measurement": "immunogenic potential of cells succumbing to etoposide", "setting": "[1]; mouse, in vivo", "value": "greatly enhanced"}, {"measurement": "CRT exposure", "setting": "[6]; agent alone", "value": "efficiently induced"}, {"measurement": "CRT exposure", "setting": "[6]; in combination with etoposide", "value": "greatly enhanced"}]}, {"compound": "C2-ceramide [C2 ceramide]", "values": [{"measurement": "immunogenic apoptosis / immunogenic cell death (protection against tumour growth)", "setting": "[1]; [8]", "value": "failed to induce immunogenic apoptosis"}]}, {"compound": "CO[C@@]12[C@H](COC(N)=O)C3=C(C(=O)C(C)=C(N)C3=O)N1C[C@@H]1N[C@@H]12", "note": "[mitomycin C]", "values": [{"measurement": "immunogenic apoptosis / immunogenic cell death (protection against tumour growth)", "setting": "[1]; mouse, in vivo", "value": "failed to induce immunogenic apoptosis"}, {"measurement": "therapeutic effect of single agent", "setting": "[4]", "value": "no major therapeutic effect"}, {"measurement": "therapeutic effect of single agent", "setting": "[5]", "value": "no major therapeutic effect"}]}, {"compound": "C/C1=C/C(=O)O[C@@H]2C[C@@H](CC[C@H](C)/C=C\\C=C\\CC1)O[C@@](O)([C@@H]1CSC(=O)N1)C2", "note": "[latrunculin A]", "values": [{"measurement": "effect on CRT exposure induced by anthracyclins and PP1/GADD34 inhibitors", "setting": "[6]; pre-incubation for 1 h with the inhibitor", "value": "abolished"}]}, {"compound": "CC(=O)[C@]1(O)Cc2c(O)c3c(c(O)c2[C@@H](O[C@H]2C[C@H](N)[C@H](O)[C@H](C)O2)C1)C(=O)c1ccccc1C3=O", "note": "[idarubicin]", "values": [{"measurement": "immunogenic apoptosis / immunogenic cell death (protection against tumour growth)", "setting": "[1]; [8]", "value": "elicited immunogenic cell death"}, {"measurement": "exposure of CRT and/or ERp57 on the cell surface", "setting": "[7]", "value": "Very similar results"}]}, {"compound": "C[C@H]1CCC/C=C/[C@@H]2C[C@H](O)C[C@H]2[C@H](O)/C=C/C(=O)O1", "note": "[brefeldin, brefeldin A]", "values": [{"measurement": "immunogenic apoptosis / immunogenic cell death (protection against tumour growth)", "setting": "[1]; [8]", "value": "failed to induce immunogenic apoptosis"}]}, {"compound": "COc1cc([C@@H]2c3cc4c(cc3[C@@H](O[C@@H]3O[C@@H]5CO[C@@H](C)O[C@H]5[C@H](O)[C@H]3O)[C@H]3COC(=O)[C@H]23)OCO4)cc(OC)c1O", "note": "[etoposide]", "values": [{"measurement": "immunogenic apoptosis / immunogenic cell death (protection against tumour growth)", "setting": "[1]; [8]", "value": "failed to induce immunogenic apoptosis"}, {"measurement": "immunogenicity of etoposide-treated cells", "setting": "[1]; sham-coated cells", "value": "poorly immunogenic"}, {"measurement": "therapeutic effect of single agent", "setting": "[4]", "value": "no major therapeutic effect"}, {"measurement": "therapeutic effect of single agent", "setting": "[5]", "value": "no major therapeutic effect"}]}, {"compound": "COc1cccc2c1C(=O)c1c(O)c3c(c(O)c1C2=O)C[C@@](O)(C(C)=O)C[C@@H]3O[C@H]1C[C@H](N)[C@H](O)[C@H](C)O1", "note": "[daunorubicin]", "values": [{"measurement": "exposure of CRT and/or ERp57 on the cell surface", "setting": "[7]", "value": "Very similar results"}]}, {"compound": "COC(=O)C[C@H](NC(=O)[C@H](C)NC(=O)[C@@H](NC(=O)OCc1ccccc1)C(C)C)C(=O)CF", "note": "[Z-VAD-fmk] (Cbz-Val-Ala-Asp(OMe)-CH2F)", "values": [{"measurement": "immunogenicity of doxorubicin-elicited cell death", "setting": "[1]; Z-VAD-fmk combined with doxorubicin", "value": "reduces the immunogenicity"}]}]}
